Experimental data: patent US10301280B2 (Plexxikon Inc., priority 2012, dated 2019)

system: BaF3-FL KIT D816V or BaF3-FL KIT V560G/D816V cell line; assay: Cell-based assays of c-Kit mutant kinase activity (cell growth, ATPlite); details: at least one of the c-kit cell assays of Example 26
Protocol: The c-Kit mutant D816V inhibitors were assessed using an engineered BaF3-FL KIT D816V or BaF3-FL KIT V560G/D816V cell line. The BaF3-FL KIT D816V cell lines were created by introduction of KIT mutant (D816V) full length constructs that render the cells dependent on the introduced kinase for growth. Inhibitors of c-Kit mutant D816V kinase reduce or eliminate the mediated c-kit mutant D816V kinase activation, resulting in reduced cell proliferation of the BaF3-FL Kit mutant D816V cells. This inhibition is measured by the effect of compound concentration on cell growth to assess IC50 values. BaF3-FL KIT D816V cells were seeded at 1×10^4 cells per well of a 96 well cell culture plate in 50 μl of cell culture medium of RPMI Medium 1X (Invitrogen #11875-093) supplemented with 10% FBS (Invitrogen #10438), 1% Non Essential Amino Acids(Invitrogen #11140), 1% Penicillin Streptomycin (Invitrogen #15140), 1% L-Glutamine (Invitrogen #25030-081). Compounds were dissolved in DMSO at a concentration of 5 mM and were serially diluted 1:3 for a total of eight points and added to the cells to a final maximum concentration of 10 μM in 100 μl cell culture medium (final concentration 0.2% DMSO). Cells were also treated with Dasatinib as a positive control. The cells were incubated at 37° C., 5% CO2 for three days. ATPlite Buffer (Perkin Elmer #6016739) and substrate were equilibrated to room temperature, and enzyme/substrate Recombinant Firefly Luciferase/D-Luciferin was reconstituted. The cell plates were equilibrated to room temperature for 30 minutes, then lysed by addition of 25 uL per well of the ATPlite Reagent. The plate was mixed for 5 minutes on a plate shaker to lyse the cells. The plates were read on a Tecan Safire using Luminescence protocol modified to read 0.1 s per well. The luminescence reading assesses the ATP content, which correlates directly with cell number such that the reading as a function of compound concentration is used to determine the IC50 value.
Plasmids P75635 and P75565 were engineered for mammalian cell expression. In both plasmids, full-length human v-kit Hardy-Zuckerman 4 feline sarcoma viral oncogene homolog gene (NCBI accession NM_000222, KIT, residues M1-V976) was subcloned into the pCI-Neo vector (Promega E1841). Plasmid P75635 contains the mutation of residue Aspartic acid 816 to Valine. Plasmid P75565 contains the double mutation of residues Valine 560 to Glycine and Aspartic acid 816 to Valine. The pCI-neo Mammalian Expression Vector carries the human cytomegalovirus (CMV) immediate-early enhancer/promoter region to promote constitutive expression of KIT and contains the neomycin phosphotransferase gene, a selectable marker.
It is understood that the results of these assays may vary as assay conditions are varied. Inhibition levels determined under the conditions described herein represent a relative activity for the compounds tested under the specific conditions employed. The cell based assays are likely to show variability due to the complexity of the system and the sensitivity thereof to any changes in the assay conditions. […] In some instances, the compounds were not tested in all of the assays, or assay results were not valid.

| IC50 [µM] | SMILES |
| --- | --- |
| < 10 | Cc1n[nH]c(C(=O)Nc2cnc3[nH]c(-c4cccc(C(=O)N5CCOCC5)c4)cc3c2)c1C [P-2106, 3,4-dimethyl-N-[2-[3-(morpholine-4-carbonyl)phenyl]-1H-pyrrolo[2,3-b]pyridin-5-yl]-1H-pyrazole-5-carboxamide] |
| < 10 | Cc1n[nH]c(C(=O)Nc2cnc3[nH]c(-c4cccc(C(=O)N5CCCC5)c4)cc3c2)c1C [P-2107, 3,4-dimethyl-N-[2-[3-(pyrrolidine-1-carbonyl)phenyl]-1H-pyrrolo[2,3-b]pyridin-5-yl]-1H-pyrazole-5-carboxamide] |
| < 10 | Cc1n[nH]c(C(=O)Nc2cnc3[nH]c(-c4ccnc(C5CC5)c4)cc3c2)c1C [P-2108, N-[2-(2-cyclopropyl-4-pyridyl)-1H-pyrrolo[2,3-b]pyridin-5-yl]-3,4-dimethyl-1H-pyrazole-5-carboxamide] |
| < 10 | COc1cc(-c2cc3cc(NC(=O)c4[nH]nc(C)c4C)cnc3[nH]2)ccn1 [P-2109, N-[2-(2-methoxy-4-pyridyl)-1H-pyrrolo[2,3-b]pyridin-5-yl]-3,4-dimethyl-1H-pyrazole-5-carboxamide] |
| < 10 | Cc1n[nH]c(C(=O)Nc2cnc3[nH]c(-c4ccnc(N5CCOCC5)c4)cc3c2)c1C [P-2110, 3,4-dimethyl-N-[2-(2-morpholino-4-pyridyl)-1H-pyrrolo[2,3-b]pyridin-5-yl]-1H-pyrazole-5-carboxamide] |
| < 10 | Cc1n[nH]c(C(=O)Nc2cnc3[nH]c(-c4ccc(NS(C)(=O)=O)cc4)cc3c2)c1C [P-2111, N-[2-[4-(methanesulfonamido)phenyl]-1H-pyrrolo[2,3-b]pyridin-5-yl]-3,4-dimethyl-1H-pyrazole-5-carboxamide] |
| < 10 | Cc1cc(C(=O)Nc2cnc3[nH]c(-c4ccc(F)cc4)cc3c2)nn1C [P-2119, N-[2-(4-fluorophenyl)-1H-pyrrolo[2,3-b]pyridin-5-yl]-1,5-dimethyl-pyrazole-3-carboxamide] |
| < 10 | Cc1n[nH]c(C(=O)Nc2cnc3[nH]c(-c4ccncc4)cc3c2)c1C [P-2124, 3,4-dimethyl-N-[2-(4-pyridyl)-1H-pyrrolo[2,3-b]pyridin-5-yl]-1H-pyrazole-5-carboxamide] |
| < 10 | Cc1n[nH]c(C(=O)Nc2cnc3[nH]c(-c4ccc(N5CCCC5)cc4)cc3c2)c1C [P-2125, 3,4-dimethyl-N-[2-(4-pyrrolidin-1-ylphenyl)-1H-pyrrolo[2,3-b]pyridin-5-yl]-1H-pyrazole-5-carboxamide] |
| < 10 | CCCS(=O)(=O)Nc1cccc(-c2cc3cc(NC(=O)c4[nH]nc(C)c4C)cnc3[nH]2)c1 [P-2126, 3,4-dimethyl-N-[2-[3-(propylsulfonylamino)phenyl]-1H-pyrrolo[2,3-b]pyridin-5-yl]-1H-pyrazole-5-carboxamide] |
| < 10 | Cc1n[nH]c(C(=O)Nc2cnc3[nH]c(-c4ccc(P(C)(C)=O)cc4)cc3c2)c1C [P-2127, N-[2-(4-dimethylphosphorylphenyl)-1H-pyrrolo[2,3-b]pyridin-5-yl]-3,4-dimethyl-1H-pyrazole-5-carboxamide] |
| < 10 | Cc1n[nH]c(C(=O)Nc2cnc3[nH]c(-c4cccc(C#N)c4)cc3c2)c1C [P-2128, N-[2-(3-cyanophenyl)-1H-pyrrolo[2,3-b]pyridin-5-yl]-3,4-dimethyl-1H-pyrazole-5-carboxamide] |
| < 10 | COc1cccc(-c2cc3cc(NC(=O)c4[nH]nc(C)c4C)cnc3[nH]2)c1F [P-2129, N-[2-(2-fluoro-3-methoxy-phenyl)-1H-pyrrolo[2,3-b]pyridin-5-yl]-3,4-dimethyl-1H-pyrazole-5-carboxamide] |
| < 10 | Cc1cccc(-c2cc3cc(NC(=O)c4[nH]nc(C)c4C)cnc3[nH]2)c1 [P-2130, 3,4-dimethyl-N-[2-(m-tolyl)-1H-pyrrolo[2,3-b]pyridin-5-yl]-1H-pyrazole-5-carboxamide] |
| < 10 | Cc1n[nH]c(C(=O)Nc2cnc3[nH]c(-c4ccc(F)cc4)cc3c2)n1 [P-2131, N-[2-(4-fluorophenyl)-1H-pyrrolo[2,3-b]pyridin-5-yl]-3-methyl-1H-1,2,4-triazole-5-carboxamide] |
| < 10 | CCCc1cc(C(=O)Nc2cnc3[nH]c(-c4ccc(F)cc4)cc3c2)[nH]n1 [P-2132, N-[2-(4-fluorophenyl)-1H-pyrrolo[2,3-b]pyridin-5-yl]-3-propyl-1H-pyrazole-5-carboxamide] |
| < 10 | CC(=O)Nc1ccc(-c2cc3cc(NC(=O)c4[nH]nc(C)c4C)cnc3[nH]2)cn1 [P-2133, N-[2-(6-acetamido-3-pyridyl)-1H-pyrrolo[2,3-b]pyridin-5-yl]-3,4-dimethyl-1H-pyrazole-5-carboxamide] |
| < 10 | CCCCNC(=O)Nc1cccc(-c2cc3cc(NC(=O)c4[nH]nc(C)c4C)cnc3[nH]2)c1 [P-2134, N-[2-[3-(butylcarbamoylamino)phenyl]-1H-pyrrolo[2,3-b]pyridin-5-yl]-3,4-dimethyl-H-pyrazole-5-carboxamide] |
| < 10 | COc1ccccc1-c1cc2cc(NC(=O)c3[nH]nc(C)c3C)cnc2[nH]1 [P-2135, N-[2-(2-methoxyphenyl)-1H-pyrrolo[2,3-b]pyridin-5-yl]-3,4-dimethyl-1H-pyrazole-5-carboxamide] |
| < 10 | Cc1ncccc1-c1cc2cc(NC(=O)c3[nH]nc(C)c3C)cnc2[nH]1 [P-2136, 3,4-dimethyl-N-[2-(2-methyl-3-pyridyl)-1H-pyrrolo[2,3-b]pyridin-5-yl]-1H-pyrazole-5-carboxamide] |
| < 10 | CC(=O)Nc1ccc(-c2cc3cc(NC(=O)c4[nH]nc(C)c4C)cnc3[nH]2)cc1 [P-2137, N-[2-(4-acetamidophenyl)-1H-pyrrolo[2,3-b]pyridin-5-yl]-3,4-dimethyl-1H-pyrazole-5-carboxamide] |
| < 10 | Cc1n[nH]c(C(=O)Nc2cnc3[nH]c(-c4ccc(C(=O)N5CCOCC5)cc4)cc3c2)c1C [P-2138, 3,4-dimethyl-N-[2-[4-(morpholine-4-carbonyl)phenyl]-1H-pyrrolo[2,3-b]pyridin-5-yl]-1H-pyrazole-5-carboxamide] |
| < 10 | Cc1nc(C)c(-c2cc3cc(NC(=O)c4[nH]nc(C)c4C)cnc3[nH]2)s1 [P-2139, N-[2-(2,4-dimethylthiazol-5-yl)-1H-pyrrolo[2,3-b]pyridin-5-yl]-3,4-dimethyl-1H-pyrazole-5-carboxamide] |
| < 10 | Cc1n[nH]c(C(=O)Nc2cnc3[nH]c(-c4cnn(C(F)F)c4)cc3c2)c1C [P-2140, N-[2-[1-(difluoromethyl)pyrazol-4-yl]-1H-pyrrolo[2,3-b]pyridin-5-yl]-3,4-dimethyl-1H-pyrazole-5-carboxamide] |
| < 10 | Cc1n[nH]c(CNc2cnc3[nH]c(-c4ccc(F)cc4)cc3c2)c1Cl [P-2141, N-[(4-chloro-5-methyl-1H-pyrazol-3-yl)methyl]-2-(4-fluorophenyl)-1H-pyrrolo[2,3-b]pyridin-5-amine] |
| < 10 | Cc1cc(CNc2cnc3[nH]c(-c4ccc(F)cc4)cc3c2)[nH]n1 [P-2142, 2-(4-fluorophenyl)-N-[(5-methyl-1H-pyrazol-3-yl)methyl]-1H-pyrrolo[2,3-b]pyridin-5-amine] |
| < 10 | Cc1n[nH]c(C(=O)Nc2cnc3[nH]c(-c4cccc(Cl)c4C)cc3c2)c1C [P-2147, N-[2-(3-chloro-2-methyl-phenyl)-1H-pyrrolo[2,3-b]pyridin-5-yl]-3,4-dimethyl-1H-pyrazole-5-carboxamide] |
